{
  "source": "patent US20210393606A1",
  "about": "“THERAPEUTIC AGENT FOR FRONTAL LOBE DYSFUNCTION” (KYOWA HAKKO KIRIN CO., LTD., priority 2015, published 2021)",
  "key": {"[1]": {"tested_on": "medial prefrontal dopaminergic terminal-lesioned rat", "test": "Object recognition test using medial prefrontal dopaminergic terminal-lesioned rat", "type": "in vivo", "details": "lesioned rats", "text": "The object recognition test is known as an evaluation system of cognitive function utilizing properties of animal to willingly explore a new object (Behavioural Brain Research 31, p. 47 (1988)). An animal is placed in an apparatus containing two identical objects and allowed to freely explore (acquisition trial), after which one of the objects in the apparatus is changed to one having a different shape (novel object) and the animal is allowed to freely explore (test trial). […] In this test, such property is evaluated as an index of cognitive function.\nCD(SD)IGS rat (male, Charles River) received Pentobarbital sodium salt (Tokyo Chemical Industry Co., Ltd., 30 mg/kg) intraperitoneally and fixed on a brain stereotaxis apparatus (SR-6, Narishige kagaku kikai kenkyusho) under anesthesia. Using a microinjection pump (CMA/100, Carnegie Medicine), dopaminergic neurotoxin, 6-hydroxidopamine hydrochloride (6-OHDA, Sigma-Aldrich) was injected over about 1 min at (1) 3.2 mm anterior, 0.8 mm left lateral and 3.0 mm ventral, (2) 3.2 mm anterior, 0.8 mm right lateral and 3.0 mm ventral, (3) 3.2 mm anterior, 0.8 mm left lateral and 5.0 mm ventral, (4) 3.2 mm anterior, 0.8 mm right lateral and 5.0 mm ventral, (5) 4.2 mm anterior, 0.8 mm left lateral and 4.0 mm ventral, and (6) 4.2 mm anterior, 0.8 mm right lateral and 4.0 mm ventral, each from the bregma suture of the rats to lesion dopaminergic terminals in the medial prefrontal cortex. 6-OHDA was prepared at a concentration of 4 μg/μL, injected at a flow rate of 1 μL/min over 1 min, and stood for 1 min. In the sham operated group, a stainless cannula was inserted into the same coordinates. […] The dosing volumes of pentobarbital sodium and desipramine hydrochloride were calculated at 1 and 5 mL/kg based on the body weight measured on the administration day. […]\nTo familiarize the rats with the experimenter, they were handled for 3 days before the test. […] The time spent in exploration (sniffing) each object of the rats in the test trial was measured, and the ratio (%) relative to the total exploration time was calculated. […]"}, "[2]": {"tested_on": "NAC61-95-treated Slc:ICR mice (α-synucleinopathy model)", "test": "Spontaneous alternation task (Y-maze) in NAC61-95-treated α-synucleinopathy model mice", "type": "in vivo, mouse", "details": "NAC61-95 mice", "experimental": "(§1) By reference to articles (Science, 338, p. 949 (2012); Behavioral Brain Reexplore, 208, p. 274 (2010)), an animal model capable of confirming a treatment and/or prophylactic effect on α-synucleinopathy, for example, Lewy body disease (for example, cognitive impairment in Parkinson's disease, diffuse Lewy body disease, dementia with lewy bodies, movement disorder associated with Lewy body disease and the like) was generated as follows.\nThe cognitive function was evaluated using a spontaneous alternation task. The spontaneous alternation task is known as an evaluation system of cognitive function utilizing properties of animal to willingly explore a novel environment (Neuroscience and Biobehavioral Reviews 28, p. 497 (2004)). […] The motor function was evaluated by analyzing gait function in natural walk conditions using a gait analysis system. […]\nMice were brought into the experiment room on the previous day of test for habituation. […] Entry of all four limbs of a mouse into one arm was defined as entry into arm, and the order of entry of the mice into the arm was recorded. A behavior of continuous entry into all three different arms was defined as spontaneous alternation behavior, and the percentage of alternation behavior was calculated by the following calculation formula. […]"}, "[3]": {"tested_on": "NAC61-95-treated Slc:ICR mice (α-synucleinopathy model)", "test": "Gait analysis (CatWalk XT) in NAC61-95-treated α-synucleinopathy model mice", "type": "in vivo, mouse", "details": "NAC61-95 mice", "experimental": "as §1\nThe cognitive function was evaluated using a spontaneous alternation task. The spontaneous alternation task is known as an evaluation system of cognitive function utilizing properties of animal to willingly explore a novel environment (Neuroscience and Biobehavioral Reviews 28, p. 497 (2004)). That is, if the animal remembers the arm previously entered in exploration in a Y-maze apparatus, the behavior of spontaneous entry into a different arm is expressed by an alternation behavior rate, and used as an index of cognitive function. The motor function was evaluated by analyzing gait function in natural walk conditions using a gait analysis system.\nNAC61-95 (custom, Sigma) was dissolved in PBS to prepare 4 μg/μL NAC61-95 solution.\nUnder pentobarbital (Somnopentyl, Kyoritsuseiyaku, 50 mg/kg, i.p.) anesthesia, 5 μL of NAC61-95 solution was injected using a Hamilton syringe (10 μL) equipped with a double needle (27G, needle length 3 mm) into the right lateral cerebral ventricle of Slc:ICR mice (male, Japan SLC) over about 1 min, and stood for 1 min to induce cognitive impairment and/or movement disorder. The sham treatment group was injected with 5 μL of PBS.\nA gait analysis system (CatWalk XT, ver. 9.1, Noldus) was used. The system was constituted of a walkway with pressure dependent luminescence glass and a light source, luminescence ceiling, highly sensitive highspeed camera and analysis software, and the gait was analyzed by digitizing the brightness of the light emitted by the pressure dependent luminescence glass in response to the pressure. The gait data was automatically recorded and analyzed by the analysis software only when the mice moved straight forward without stopping in the predetermined area on the walkway.\nThe mice were brought into the experiment room without light and habituated for not less than 1 hr. The mice were placed in the apparatus, and allowed to walk freely until 6 running data were obtained for each mouse. The earliest three analyzable running data were used, and mean was calculated. By reference to an article relating to movement disorder in Parkinson's disease animal model (Journal of Biomedical Science 17, p. 9 (2010)), a decrease in the maximum contact area (Total surface area of certain paw at the moment of maximum paw contact) and print area (total surface area of the paw print), as well as change in the gait pattern (sequence of contact of 4 paws) were used as indices of movement disorder.\nAt 60 min before the test, compound (I) (suspended in 0.5 w/v % aqueous MC solution, and prepared to 0.5 mL per 100 g body weight of mouse on the administration day) was orally administered at a dose of 0.1 mg/kg, or a vehicle (0.5 w/v % aqueous MC solution) free of the test compound was orally administered at 0.5 mL per 100 g body weight of mice on the administration day."}, "[4]": {"tested_on": "SLC: ICR male mice injected with α-synuclein or NAC61-95", "test": "α-Synucleinopathy model (α-synuclein or NAC61-95 injected mice), behavioral pharmacological evaluation, Experimental Example 2", "type": "in vivo, mouse", "details": "appropriate dose, a few hours after administration; written in present tense, no data", "text": "as §1, with “is generated.” for “was generated as follows.”\nAn appropriate dose of a solution of α-synuclein (rPeptide, S-100) or NAC61-95 (custom, Sigma) dissolved in phosphate buffered saline (PBS) is injected to the striatum or lateral cerebral ventricle of SLC: ICR male mice to induce cognitive impairment and/or movement disorder. After confirmation of the pathology induction, an appropriate dose of compound (I) is administered to the mice."}, "[5]": {"details": "0.3 mg/kg orally 60 min before test, 3 min test trial, mean±standard error"}, "[6]": {"details": "0.1 mg/kg orally 60 min before test, mean±standard error"}},
  "data": [
    {"smiles": "Cc1ccc(C(=O)Nc2nc(-c3ccco3)c(C(=O)C3CCOCC3)s2)cn1", "note": "[compound (I)]", "values": [
      {"measurement": "ratio (%) of exploration time, familiar object", "setting": "[1]; [5]", "value": "34.97 ± 2.88", "unit": "%"},
      {"measurement": "ratio (%) of exploration time, novel object", "setting": "[1]; [5]", "value": "65.03 ± 2.88", "unit": "%"},
      {"measurement": "exploration time of the novel object compared with the familiar object", "setting": "[1]; 0.3 mg/kg orally, paired t-test p<0.001", "value": "significantly longer"},
      {"measurement": "alternation behavior (%)", "setting": "[2]; 0.1 mg/kg orally 60 min before test, Y-maze 7 min, mean±standard error", "value": "69.5 ± 2.4", "unit": "%"},
      {"measurement": "alternation behavior compared to the vehicle administration group", "setting": "[2]; 0.1 mg/kg orally, Student's t-test p<0.01", "value": "significantly high"},
      {"measurement": "gait pattern AA", "setting": "[3]; AA: right forepaw → right hindpaw → left forepaw → left hindpaw, 0.1 mg/kg orally, mean±standard error", "value": "0.00 ± 0.00"},
      {"measurement": "gait pattern AB", "setting": "[3]; AB: right forepaw → left hindpaw → left forepaw → right hindpaw, 0.1 mg/kg orally, mean±standard error", "value": "81.86 ± 4.25"},
      {"measurement": "gait pattern CA", "setting": "[3]; CA: right forepaw → left forepaw → right hindpaw → left hindpaw, 0.1 mg/kg orally, mean±standard error", "value": "13.39 ± 4.00"},
      {"measurement": "gait pattern CB", "setting": "[3]; CB: right forepaw → left hindpaw → right hindpaw → left forepaw, 0.1 mg/kg orally, mean±standard error", "value": "4.75 ± 1.79"},
      {"measurement": "change of gait pattern compared to the vehicle administration group", "setting": "[3]; 0.1 mg/kg orally", "value": "an increase in pattern AB and a decrease in pattern CB"},
      {"measurement": "maximum contact area, left forepaw", "setting": "[3]; [6]", "value": "0.30 ± 0.02"},
      {"measurement": "maximum contact area, left hindpaw", "setting": "[3]; [6]", "value": "0.31 ± 0.02"},
      {"measurement": "maximum contact area, right forepaw", "setting": "[3]; [6]", "value": "0.29 ± 0.02"},
      {"measurement": "maximum contact area, right hindpaw", "setting": "[3]; [6]", "value": "0.30 ± 0.02"},
      {"measurement": "print area, left forepaw", "setting": "[3]; [6]", "value": "0.40 ± 0.02"},
      {"measurement": "print area, left hindpaw", "setting": "[3]; [6]", "value": "0.38 ± 0.03"},
      {"measurement": "print area, right forepaw", "setting": "[3]; [6]", "value": "0.39 ± 0.02"},
      {"measurement": "print area, right hindpaw", "setting": "[3]; [6]", "value": "0.37 ± 0.03"},
      {"measurement": "maximum contact area and gait area of the left hindpaw compared to the vehicle administration group", "setting": "[3]; 0.1 mg/kg orally, p<0.05", "value": "significantly large"},
      {"measurement": "maximum contact area and gait area of the right forepaw compared to the vehicle administration group", "setting": "[3]; 0.1 mg/kg orally, p<0.1", "value": "tendency of the maximum contact area and gait area of the right forepaw being large"},
      {"measurement": "pathology (cognitive impairment and/or movement disorder) by Y-maze, spontaneous motor activity, CATWALK", "setting": "[4]", "value": "Improvement of the pathology"}
    ]}
  ]
}
